The results in this text go back to patent US4312866A, “Use of rifamycin SV and its related salts in the treatment of rheumatoid arthritis, and related formulations suited for the purpose” (priority 1979, dated 1982).

“Also recorded” adds a separate entry of the source. Counter-ions that a name gives are not always drawn.

Series [1] in a line: Rifamycin levels in monoarthritic guinea-pig after intra-articular administration. The format is in vivo. The conditions noted are these: monoarthritic guinea-pig (gamma-globulin arthritis). An excerpt: The observation that in the monoarthritic guinea-pig (gamma-globulin arthritis) rifamycin arginine salt levels, 10 times higher than in the case of rifamycin sodium salt, can be observed following an intra-articular administration of either rifamycin sodium salt or arginine salt, proves in full agreement with the above mentioned datum.

For series [2], the system named is persistent effusions in one or both knees.
Protocol: In a second clinical experimental course, 75 patients, presenting with persistent effusions in one or both knees were given 500 mg of rifamycin SV (in the form of a L-arginine salt) every seven days, still by intra-articular injection.
A short description of a further series: clinical. Particulars: in vivo. Here is the method:
(§1) The rifamycin levels, present in the biological fluids of treated patients, were assayed by high pressure liquid chromatography (HPLC), a method more reliable and reproducible than the ultraviolet or microbiological method.
(§2) The synovial fluid samples were directly injected into the chromatograph after precipitation of the proteins with acetonitrile on the other hand, the serum samples had to be previously extracted with ethyl acetate at an acid pH.
(§3) A Hewlett Packard chromatograph is used, model 104 B, fitted with a fixed wave length detector (254 nm); RP 18 (10 mc) column, 25-cm length, […].
(§4) The following eluent is used: (A) an 80:20 mixture of 0.01 M phosphate buffer at pH 7 and acetonitrile; (B) acetonitrile. The gradient shifts from the 10 percent of B to the 70 percent of B within 15 minutes; the flow is 1.6 ml/minute.
(§5) The temperature of the oven is 35° C.; that of the eluent A is 60 percent and the one of the eluent B 40 percent.
(§6) Rifamycin SV and its oxidized form, ie rifamycin S, are used as standard.
In order to establish the standard lines in the synovial fluid, 500 mg of each single compound are dissolved in one liter exactly of a 1:1 water-methanol mixture.
(§7) The two absorption lines are made up injecting 5 mcl, 10 mcl and 15 mcl of said solutions into the chromatograph.
Determination of rifamycin SV in the synovial fluid
This determination is directly carried out on the deproteinized synovial fluid. 200 mcl of sample are introduced into a centrifuge test tube, and added with 2 ml of acetonitrile.
The resulting solution is stirred, and allowed to decant; 20 mcl of supernatant fluid are thereafter injected into the chromatograph. The samples are analyzed immediately in order to prevent the oxidation of rifamycin SV into rifamycin S.
(§8) The data are expressed as mcg/ml.

Series [3] in a line: Comparison of synovial fluid rifamycin levels, sodium salt vs arginine salt (Table 2). The format is in vivo, patients. Particulars: equivalent to 500 mg rifamycin SV; for concentration at 5 min / concentration at 1 h / concentration at 2 h / concentration at 4 h / concentration at 8 h: human, synovial fluid, mean of eight determinations.
A further series is described as follows: Solubility of the salts. Format: physicochemical.
For series [4], the system named is joint sites other than the knee (wrist, hand's metacarpophalangeal and interphalangeal joints, tibiotarsal joints, etc). As to the kind of experiment: Infiltrations into joint sites other than the knee. The format is in vivo, patients. Particulars: approximately 300 joints. An excerpt: (§9) Two of the 75 patients had to stop the treatment because of the above mentioned untoward side effect.

In a further series the test system is rabbit's spinal sac. Briefly: Local tolerability after injection into the rabbit's spinal sac. Particulars: 60-mg injection once daily for three consecutive days, versus commercial solutions of rifamycin SV. Format: in vivo.
Series [5] is described as follows: pH of aqueous solutions of the salts. Format: physicochemical.
A short description of series [6]: Stability of solutions and lyophilyzed salts. The conditions noted are these: dry state. The format is physicochemical.
The next series has as its system rheumatoid arthritis. Briefly: Intra-articular injections in rheumatoid arthritis (general statement). The conditions noted are these: rheumatoid arthritis patients. Format: in vivo.
In another series the test system is rheumatoid synovitis. Briefly: Clinical trials (open and double-blind) in rheumatoid synovitis. Format: in vivo, patients. Here is the method:
The effects of intra-articular injections of rifamycin SV solutions in rheumatoid synovitis were assessed in two clinical trials, one carried out according to an open technique and the other one according to a double-blind experimental design. A total of 35 patients was treated, with an intra-articular injection of 200-500 mg weekly, for a maximum of 10 weeks. The patients were followed up for three years. The following laboratory diagnostic tests were made weekly on the synovial fluids: white blood cell differential count, RA test, Waaler-Rose test, latex test, immunoglobulins, T and B lymphocytes, C3 and C4 levels, glucose, acid phosphatase.
Bioptic examinations were carried out both before and after various months (1-18) after the start of the treatment.

The subject of series [7] is cultures of synovial membrane fragments. As to the kind of experiment: Inhibiting activity on cultures of synovial membrane fragments. Format: cell-based. The conditions noted are these: needle biopsy, patients with suspected rheumatoid arthritis.
From the text: as §9

For series [8] the following is noted: in vivo. Here is the method: as §1, §2, §3, §4, §5, §6, §7
The previous solutions are ten-fold diluted in the case of sera standard lines; the above mentioned operations are thereafter repeated.
Determination of Rifamycin in the Serum […]
as §8

[9] abbreviates: synovial fluid, end of the treatment.

For the compound `COC1C=COC2(C)Oc3c(C)c(O)c4c(O)c(cc(O)c4c3C2=O)NC(=O)C(C)=CC=CC(C)C(O)C(C)C(O)C(C)C(OC(C)=O)C1C` [L-arginine salt of rifamycin SV, rifamycin SV salt with arginine], in series [1], the “rifamycin arginine salt levels vs rifamycin sodium salt” value was determined as 10 times higher. The “patients with complete subsidence of effusions and marked clinical improvement” value in series [2] (500 mg rifamycin SV every seven days intra-articular, of 75 patients) is listed as “seventy-two”. In series [2] (1-6 months after the start of the treatment), the “patients with effusional relapse” value stood at 3 patients. Further, the “patients not responding to 12 infiltrations” value in series [2] (12 infiltrations) is reported as “one”. Also, the synovial fluid leukocytes result in series [2] (P<0.001) is listed as “significant decrease”. In addition, the “C3 and C4 complemental fractions in synovial fluid” value in series [2] (P<0.005) is “increase”. Further, the “relation of number of infiltrations with activity of the local synovitis” value in series [2] (P<0.05) is “strictly related”. In addition, in series [2] (out of 72), the “patients requiring 1-3 infiltrations to induce effusion subsidence” value is reported as 12 patients, the “patients requiring 4-6 infiltrations to induce effusion subsidence” value is given as 33 patients and the “patients requiring 7-12 infiltrations to induce effusion subsidence” value is recorded as 27 patients. Further, in the series “clinical” (human), the concentration at 0.25 h came out at 4930 ± 550 µg/mL. Further, in series [3] (intra-articular), the “synovial fluid levels compared with sodium salt” value is “marked superiority”. Besides, in [3], the concentration at 5 min is 7160 ± 2100 µg/mL, the concentration at 1 h is 3850 ± 800 µg/mL, the concentration at 2 h is 1730 ± 1000 µg/mL and the concentration at 4 h came to 750 ± 300 µg/mL. For the same compound, the concentration at 8 h in series [3] was determined as 173 ± 100 µg/mL. For the same compound, in the series “Solubility of the salts” (listed as arginine salt), the solubility in acetone result was “highly soluble”, the “solubility in ethyl acetate” value is “sparingly soluble”, the solubility in methanol result is “highly soluble” and the solubility in water entry was “highly soluble”. Further, the solubility in chloroform result in “Solubility of the salts” (chloroform) is “sparingly soluble”. Besides, in “Solubility of the salts” (listed as arginine salt of rifamycin SV), the solubility in water entry was “optimal water solubility properties”. Besides, in series [4], the “analgesic and anti-inflammatory activity” value is “potent analgesic and anti-inflammatory activity”; the joint function result is “overall improvement of joint function”; the morning stiffness entry is “marked reduction, and quite often in a complete subsidence”. In addition, the local tolerability result in the series with rabbit's spinal sac was “optimal and definitely better than that observed in the case of commercial solutions”. Moreover, in series [5] (10 percent aqueous solution), the “pH of 10 percent aqueous solution” value was determined as 6.7.
With `COC1C=COC2(C)Oc3c(C)c(O)c4c(O)c(cc(O)c4c3C2=O)NC(=O)C(C)=CC=CC(C)C(O)C(C)C(O)C(C)C(OC(C)=O)C1C` (centres unmarked) [histidine salt, rifamycin SV salt with histidine], in the series “Solubility of the salts”, the solubility in acetone entry is given as “good”, the “solubility in ethyl acetate” value is recorded as “practically nil”, the solubility in methanol result is on record as “high” and the solubility in water result is reported as “high”. Also, in the series “Solubility of the salts” (benzene), the solubility in benzene entry was “practically nil”. In addition, the solubility in ethanol entry in “Solubility of the salts” (ethanol) is “good”. Besides, the solubility in ether result in the series “Solubility of the salts” (ether) was “practically nil”. Further, in “Solubility of the salts” (isopropanol), the solubility in isopropanol result is recorded as “practically nil”. Further, the “pH of 20 percent aqueous solutions” value in [5] (20 percent aqueous solutions) was 6.4-6.7.
As to `CO[C@H]1/C=C/O[C@@]2(C)Oc3c(C)c(O)c4c(O)c(cc(O)c4c3C2=O)NC(=O)/C(C)=C\C=C\[C@H](C)[C@H](O)[C@@H](C)[C@@H](O)[C@@H](C)[C@H](OC(C)=O)[C@@H]1C` [rifamycin SV sodium salt, reference compound], in [3], the concentration at 5 min was 6700 ± 200 µg/mL, the concentration at 1 h turned out to be 1530 ± 490 µg/mL, the concentration at 2 h turned out to be 485 ± 180 µg/mL and the concentration at 4 h is 439 ± 180 µg/mL. Moreover, the concentration at 8 h in series [3] is 140 ± 67 µg/mL. In addition, the solubility in water result in the series “Solubility of the salts” is “scarcely soluble in water”. In series [6], the “preservation of lyophilyzed salt” value is reported as “can be preserved for years at room temperature”.
As to `COC1C=COC2(C)Oc3c(C)c(O)c4c(O)c(cc(O)c4c3C2=O)NC(=O)C(C)=CC=CC(C)C(O)C(C)C(O)C(C)C(OC(C)=O)C1C` (centres unmarked) [rifamycin SV], the “resolution of the pathologic condition” value in the series with rheumatoid arthritis is listed as “rapid resolution of the pathologic condition as well as to the patient's complete cure”. Besides, in series [2] (human, in vivo), the initial local pain entry is on record as “majority of the patients”, the “patients who had to stop the treatment because of side effect” value was “Two” and the “patients with local retarded painful reaction” value came to 28 patients. Also, the “patients with reappearance of exudate” value in the series on rheumatoid synovitis (35 patients, followed up for three years) is given as “two”. In addition, in the series with rheumatoid synovitis (200-500 mg weekly intra-articular, maximum 10 weeks), the disappearance of exudate result was “completely disappeared after the third and within the tenth instillation”. In the series with rheumatoid synovitis (biopsies before and 1-18 months after start of treatment), the “histological variations of the knees” value is given as “reduction of synovial cell infiltrates; also recorded: increase of newly-formed connective tissue; also recorded: surrounding areas with a residual hyperplastic synovia; also recorded: depositions of a new partially organized fibrin”. Besides, the immunological parameters entry in the series with rheumatoid synovitis (end of the treatment) is recorded as “No variations”. Also, in the series with rheumatoid synovitis (setting [9]), the RA cells entry is given as “significant drop”, the polymorphocyte percentage entry is “significant drop” and the total leukocytes result is reported as “significant drop”. Further, in “clinical”, the “diffusion of rifamycin SV injected into the joint” value is recorded as “scarce diffusion” and the “rifamycin species present in the synovial fluid” value is on record as “Only rifamycin SV is present in the synovial fluid”. Also, the “inhibiting activity on cultures of synovial membrane fragments” value in [7] is reported as “inhibiting activity of rifamycin SV was demonstrated”.
Turning to `COC1C=COC2(C)Oc3c(C)c(O)c4c(c3C2=O)C(=O)C=C(NC(=O)C(C)=CC=CC(C)C(O)C(C)C(O)C(C)C(OC(C)=O)C1C)C4=O` (centres unmarked) [rifamycin S], in [8], the “rifamycin species present in the serum” value is recorded as “serum also contains rifamycin S”.
